Experiments:
Format in all cases: cell-based
[1] = tested on: P10 LNC (human limbal niche cells); experiment: P10 LNC on coated MG with soluble HC-HA/PTX3 with or without AMD3100, LDN-193189 or BMP receptor siRNAs; conditions: for upregulation of CXCR4 transcript by soluble HC-HA/PTX3: with CXCR4 inhibitor
Experimental: Upon 80% confluence, P10 LNC cultured on coated Matrigel™ (MG) were pre-treated with 0.1% DMSO with or without 20 μg/mL AMD3100 or 100 nM LDN-193189 for 30 min before being trypsinized and seeded at 2×10^5/mL on coated MG in MESCM containing 20 μg/mL of AMD3100 or 100 nM LDN-193189 with 25 μg/mL soluble HC-HA/PTX3 for another 48 h. For the siRNA knockdown, 80% confluent P10 LNC on 6-well coated MG were subjected to transfection by mixing 200 μl of serum-free, antibiotic-free MESCM with 4 μL of HiPerFect siRNA transfection reagent (final dilution, 1:300) and 6 μl of 20 μM of scRNA or siRNAs for BMPR1A, BMPR1B, BMPR2, and ACVR1 at the final concentration of 100 nM, drop-wise, followed by culturing in 1 mL of fresh MESCM at 37° C. for 24 h before soluble HC-HA/PTX3 was added at a final concentration of 25 μg/mL in the MESCM medium.
RNA extract was reverse transcribed to cDNA with reverse-transcribed using High Capacity Reverse Transcription Kit (Applied Biosystems, Foster City, Calif.) using primers listed in Supplementary Table S3. The resultant cDNAs were amplified by specific TaqMan gene expression assay mix and universal PCR master mix in QuantStudio™ 5 Real Time PCR System (ThermoFisher, Santa Clara, Calif.) with real-time RT-PCR profile consisting of 10 min of initial activation at 95° C., followed by 40 cycles of 15 sec denaturation at 95° C., and 1 min annealing and extension at 60° C. The relative gene expression data were analyzed by the comparative CT method (MET). All assays were performed in triplicate. The results were normalized by glyceraldehyde 3-phosphate dehydrogenase (GAPDH) as an internal control.
Single cells of LNC at different passages were harvested with 0.05% trypsin and 1 mM EDTA at 37° C. for 10 min and prepared for cytospin using Cytofuge (StatSpin Inc., Norwood, Mass.) at 1000 rpm for 8 min. Cells were fixed with 4% formaldehyde, pH 7.0, for 15 min at room temperature, permeabilized with 0.2% Triton X-100 in PBS for 15 min and blocked with 2% bovine serum albumin (BSA) for 1 h before incubated with primary antibodies for 16 h at 4° C. After 3 washes with PBS, the corresponding Alexa Fluor-conjugated secondary IgG (all 1:100 dilution) were incubated for 60 min and 3 washing with PBS. After 3 washes with PBS, the second primary antibodies was incubated for 60 min and followed with the corresponding Alex Fluor-conjugated secondary IgG. The nucleus was counterstained with Hoechst 33342 before being analyzed with Zeiss LSM 700 confocal microscope (Carl Zeiss, Thornwood, N.Y.). Corresponding mouse and rabbit sera were used as negative controls for primary monoclonal and polyclonal antibodies, respectively.

[2] = tested on: human corneal fibroblasts (HCF); experiment: Timing course analysis of SDF1/CXCR4 and BMP signaling in HCF
[3] = tested on: human corneal fibroblasts (HCF); experiment: Reversal of HCF to keratocytes on immobilized HC-HA/PTX3 with or without SB431542 or AMD3100
Experimental: A total of 86 human corneas from individuals aged 18-76 years and maintained at 4° C. in Optisol (Chiron Vision, Irvine, Calif.) for less than 7 days after death were obtained from the Florida Lions Eye Bank (Miami, Fla.) and handled according to the declaration of Helsinki. HCF were isolated and cultured. Briefly, the sheets of the epithelium and the endothelium were removed from corneas, the stroma sections were cut into cubes of approximately 1 mm3, incubated in 2 mg/ml collagenase for 16 h at 37° C., and then placed in a culture medium consisting of DMEM supplemented with 10% fetal bovine serum containing […]. The culture medium was refreshed twice a week. The cells cultured to passage 3 were used for all experiments. To reverse fibroblasts or myofibroblasts into keratocytes, fibroblasts or myofibroblasts were cultured on immobilized HC-HA/PTX3 in DMEM+10% FBS for 3 days using the samples from the cells on plastic and HA as the controls. Some of the cell cultures were extended to up to 7 days of culture to monitor the expression of α-SMA formation. Total RNAs were extracted using RNeasy Mini Kit (Qiagen) and reverse-transcribed using High Capacity Reverse Transcription Kit (Applied Biosystems). cDNA was amplified by real-time RT-PCR using specific primer-probe mixtures and DNA polymerase in Quant Studio 5 Real-time PCR System (Applied Biosystems). Real-time RT-PCR profile consisted of 10 min of initial activation at 95° C., followed by 40 cycles of 15 s denaturation at 95° C., and 1 min annealing and extension at 60° C. The genuine identity of each PCR product was confirmed by the size determination using 2% agarose gels followed by ethidium bromide staining together with PCR marker according to EC3 Imaging System (BioImaging System, Upland, Calif.). The samples of human corneal fibroblasts, myofibroblasts and corneal keratocytes were air-dried and fixed in 4% formaldehyde, pH 7.0, for 15 min at room temperature, rehydrated in PBS, incubated with 0.2% Triton X-100 for 15 min, and rinsed 3 times with PBS for 5 min each. […] After three washes with PBS, they were incubated with corresponding Alexa-Fluor-conjugated secondary IgG (all 1:100 dilution) for 60 min. The samples were then counterstained with Hoechst 33342 and analyzed in Zeiss LSM 700 confocal microscope (Thornhood, N.Y.). Corresponding mouse and rabbit sera were used as negative controls for primary monoclonal and polyclonal antibodies, respectively. Cell lysates were prepared in RIPA buffer and resolved on 4-15% (w/v) gradient acrylamide gels under denaturing and reducing conditions for Western blotting. The protein extracts were transferred to the nitrocellulose membrane, which was then blocked with 5% (w/v) fat-free milk in TBST [50 mM Tris-HCl, pH 7.5, 150 mM NaCl, 0.05% (v/v) Tween-20], followed by sequential incubation with the specific primary antibody against keratocan and its respective horseradish peroxidase (HRP)-conjugated secondary antibody using β-actin as the loading control. Immunoreactive proteins were detected with Western Lighting Chemiluminescence (PerkinElmer, Waltham, Mass.).

[4] = tested on: human corneal fibroblasts (HCF); experiment: P3 HCF on plastic with or without immobilized HA or HC-HA/PTX3, with or without TGFβ1: mRNA, ELISA, Western blot, immunostaining; conditions: with TGFβ1
Experimental: A total of 89 human corneas from individuals aged 18-76 years and maintained at 4° C. in Optisol (Chiron Vision, Irvine, Calif.) for less than 7 days after death were obtained from the Florida Lions Eye Bank (Miami, Fla.) and handled according to the declaration of Helsinki. HCF were isolated and cultured. Epithelial and endothelial cells were removed from corneas, the stroma was cut into cubes of approximately 1 mm^3, incubated in 2 mg/ml collagenase for 16 h at 37° C., and then placed in a culture medium consisting of Dulbecco's modified Eagle's medium (DMEM) supplemented with 10% fetal bovine serum containing […]. The culture medium was changed twice a week. The morphology of the cells was monitored by Nikon Eclipse TS 100 microscope (Melville, N.Y.). Cells cultured to passage 3 (P3) were used for all experiments.
Human corneal fibroblasts (P3) were seeded on plastics with or without immobilized HC-HA/PTX3 complex for 72 h in DMEM+10% FBS, then serum starved for 24 h and treated with or without TGFβ1 for 24 h before being harvested for mRNA quantitation or immunostaining. For determination of protein of TGFβ receptor or p75NTR, the cells were treated with or without TGF-β1 for 48 h before collection of protein samples because the protein expression lags behind mRNA expression. For TGF-β1 ELISA, the cells were treated with or without TGF-β1 for 24 h, and then cultured in the fresh medium for another 24 h. The supernatants were collected for TGFβ1 ELISA. For TGFβ2 and TGFβ3 ELISA, the cells were treated with or without TGFβ1 for 48 h. Certain HCF were seeded on glass in DMEM+10% FBS for 24 h, then in DMEM+ITS (insulin-transferrin-selenium) for 24 h, treated with/without PBS or hyaluronic acid (HA) or HC-HA/PTX3±TGFβ1 (10 ng/ml)±Marimastat (10 μM) or ±DAPT (10 μM) or ±both for 0, 5, 15, 30 and 45 minutes before being harvested for immunostaining of CD44-ICD, JNK1, Cyclin D1 and p75NTR and for 5 minutes before being harvested for Western blotting of cytoplasmic and nuclear CD44-ICD, active MT1-MMP, and active γ-secretase after compartmental separation of the cellular components.
Total RNAs were extracted using RNeasy Mini Kit and were reverse transcribed using High Capacity Reverse Transcription Kit (Applied Biosystems). cDNA obtained was amplified by real-time RT-PCR using specific primer-probe mixtures and DNA polymerase in 7000 Real-time PCR System (Thermo-Fisher Scientific, Carlsbad, Calif.). Real-time RT-PCR profile consisted of 10 minutes of initial activation at 95° C., followed by 40 cycles of 15 seconds denaturation at 95° C., and 1 min annealing and 1 min extension at 60° C. The genuine identity of each PCR product was confirmed by the size determination using 2% agarose gels followed by ethidium bromide staining together with PCR marker according to EC3 Imaging System (BioImaging System, Upland, Calif.).
The Quantikine Human ELISA Kits of TGFβs were used for determination of TGFβs following the manufacturer's instructions (R and D Systems, Minneapolis, Minn.).
HCF, induced human corneal endothelial cells (HCEC), and HCEC monolayer cultures were air-dried and fixed in 4% formaldehyde, pH 7.0, for 15 min at room temperature, rehydrated in PBS, incubated with 0.2% Triton X-100 for 15 min, and rinsed three times with PBS for 5 min each. After incubation with 2% BSA to block non-specific staining for 30 min, they were incubated with the desired first antibody (all at 1:50 dilution) for 16 h at 4° C. After three washes with PBS, they were incubated with corresponding Alexa-Fluor-conjugated secondary IgG (all 1:100 dilutions) for 60 min. The samples were then counterstained with Hoechst 33342 and analyzed with Zeiss LSM 700 confocal microscope (Thornhood, N.Y.). Corresponding mouse and rabbit sera were used as negative controls for primary monoclonal and polyclonal antibodies, respectively. […]

[5] = soluble HC-HA/PTX3 with AMD3100
[6] = HCF on HC-HA/PTX3 with CXCR4 inhibitor

Molecule: c1cc(CN2CCCNCCNCCCNCC2)ccc1CN1CCCNCCNCCCNCC1 [AMD3100]
- immunostaining of SDF-1 ([1]; after addition of AMD3100): became negative
- Pax6, p75NTR, NGF, Musashi-1, Msx-1 and FoxD3 transcripts [1, 5]: significant downregulation
- immunofluorescence staining pattern of CXCR4 [1, 5]: reverted to that of 3D MG
- staining of pSmad1/5/8 [1, 5]: deactivated to cytoplasmic staining
- transcript levels of BMP2, BMP4 and BMP6 ([1]; soluble HC-HA/PTX3 with AMD3100, throughout 48 h): aborted
- nuclear Pax6 staining promoted by soluble HC-HA/PTX3 ([1]; with AMD3100): aborted
- cell aggregation promoted by soluble HC-HA/PTX3 ([1]; with AMD3100 20 μg/mL, 60 min): completed aborted
- upregulation of SDF-1 transcript by soluble HC-HA/PTX3 ([1]; with AMD3100, 24 h): completely abolished
- upregulation of CXCR4 transcript by soluble HC-HA/PTX3 ([1]; 24 h): significantly downregulated
- upregulation of CXCR4 transcript by soluble HC-HA/PTX3 ([1]; 48 h): completely aborted
- aggregation and expression of SDF1, CXCR4, BMP4 and BMP6 induced by HC-HA/PTX3 ([2]; with AMD3100): completely blocked
- nuclear translocation of CXCR4 and pSMAD1/5 ([2]; with AMD3100): eliminated
- cell aggregation, mRNA overexpression of SDF1 and CXCR4, CXCR4 nuclear translocation [3, 6]: completely attenuated
- keratocan protein expression [3, 6]: blockade
- transcript expression of BMP4, BMP6, BMPR1A, BMPR1B, BMPR2 and nuclear translocation of pSMAD1/5 [3, 6]: completely nullified

Molecule: c1ccc2c(-c3cnn4cc(-c5ccc(N6CCNCC6)cc5)cnc34)ccnc2c1 [LDN-193189]
- transient nuclear translocation of CXCR4 and nuclear Pax6 staining ([1]; BMP signaling suppressed): not affected
- cell aggregation by soluble HC-HA/PTX3 ([1]; BMP signaling suppressed, compared to scRNA control): not affect
- expression level of CXCR4 and SDF-1 ([1]; BMP signaling suppressed, throughout 48 h): no significant difference

Molecule: NC(=O)c1ccc(-c2nc(-c3ccc4c(c3)OCO4)c(-c3ccccn3)[nH]2)cc1 [SB431542]
- aggregation, expression of SDF1 and CXCR4 and nuclear translocation of CXCR4 ([2]; HC-HA/PTX3 with SB431542): did not affect
- expression of BMP4 and BMP6 and nuclear translocation of pSMAD1/5 induced by HC-HA/PTX3 ([2]; with SB431542): completely inhibited
- BMP signaling and keratocan mRNA and protein expression ([3]; HCF on HC-HA/PTX3 with BMP inhibitor): completely inhibited

Molecule: TGFβ1: exogenous transforming growth factor β1, 10 ng/ml challenge
- NC marker mRNA, p75NTR protein and p75NTR nuclear translocation [4]: upregulated on plastic
